In PMC4287680, “Targeting GLP-1 receptors for repeated magnetic resonance imaging differentiates graded losses of pancreatic beta cells in mice” (Diabetologia, 2014):

System: pancreas of RIP-DTr mice
Assay: Total pancreas insulin content (acid-ethanol extraction, ELISA) after DT
Type: in vivo
Description: Rat insulin promoter-diphtheria toxin receptor (RIP-DTr) mice were generated as reported. Briefly, the transgene containing an insulin promoter and the diphtheria toxin (DT) receptor coding sequence (RIP-DTr) was targeted to the Hprt locus of the X chromosome. Thus, in this model, DT administration leads to a parallel loss of insulin content and beta cells, which is partially due to the random X inactivation (on average 50%) in hemizygous female mice and nearly complete ablation in male mice.
To evaluate the total insulin content of the pancreas, whole glands were carefully dissected and extracted in acid-ethanol for 24 h, as reported. Pancreas insulin content was evaluated using a rodent insulin ELISA kit (Mercodia, Uppsala, Sweden) according to the manufacturer’s instructions.
Three-to-four-months-old male and female mice of the RIP-DTr strain [33, 36] were tested before and after DT administration. Mice were initially imaged before the injection of a probe to obtain a baseline T2 value (ESM Fig. 2). […] One week after this first imaging session, the same mice were given three intraperitoneal injections of 125 ng DT (injections administered on days 7, 9 and 11; ESM Fig. 2) and were monitored for non-fasting blood glucose by measuring tail-vein blood samples with a glucose meter. […]

Diphtheria toxin [DT]
Pancreas insulin content after DT, female mice (average) (female RIP-DTr mice, up to 3 months after DT administration (3 × 125 ng i.p.)): 63 % of the control levels
Pancreas insulin content after DT, male mice (male RIP-DTr mice after DT administration (3 × 125 ng i.p.)): 0.4 % of control levels
